Source: the METLIN SMRT retention time set (Domingo-Almenara et al. 2019)

Assay: gradient 5% acetonitrile 3 min, to 50% in 2 min, to 85% in 15 min, held 3 min, 100 µL/min
Settings: column: Zorbax Extend-C18 2.1 x 50 mm; eluents: water / acetonitrile, 0.1% formic acid
Outline: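 A Zorbax Extend-C18 column (2.1 × 50 mm, 1.8 μm) run at 100 μL/min with water and acetonitrile, both containing 0.1% formic acid, separated mixtures of ~100 pure standards. The HPLC was coupled to a quadrupole time-of-flight mass spectrometer operated in positive and negative ionization mode, with dead and dwell volumes of 40 μL and 900 μL. Each retention time was taken from a computationally picked adduct peak that was then manually inspected.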

| RP-LC retention time | SMILES |
| --- | --- |
| 1090 s | CCc1cccc(C)c1Nc1c(-c2cc(Br)ccc2O)nc2ncccn12 |
| 908 s | Cc1cc(-c2nnc(-c3ccc(F)cc3)o2)c(C)n1CC(=O)NC1CCCC1 |
| 689 s | CCOC(=O)CC1(NC(=O)Nc2ccc3nc(C)cc(OC)c3c2)CCCCC1 |
| 844 s | Cc1cc(C)cc(NC(=O)COc2cccc3c(=O)n(C)ccc23)c1 |
| 704 s | O=C(Nc1ccc(Cl)cc1C(F)(F)F)N1CCC(n2cnnc2C2CC2)C1 (stereo not given) |
| 1120 s | Cc1ccc(-c2noc(CN3C(=O)C(C)Oc4ccccc43)n2)cc1 (stereo not given) |
| 1090 s | COc1cccc(Cc2nc(Cc3nc(-c4ccccc4)oc3C)no2)c1 |
| 712 s | Cc1cccc(NS(=O)(=O)c2cc(-c3[nH]ncc3C(=O)N(C)C)oc2C)c1C |
| 770 s | CNC(=O)C1Cc2ccccc2CN1S(=O)(=O)c1ccc(OC)cc1 (stereo not given) |
| 628 s | Nc1nnc(-c2ccc(Br)s2)o1 |
| 929 s | CCC(C)NC(=O)c1cc(-c2cccs2)nc2onc(C)c12 (stereo not given) |
| 945 s | COC(=O)c1ccc2c(=O)n(-c3cc(F)cc(F)c3)c(N3CCOCC3)nc2c1 |
| 622 s | CC1(C)CC(=O)c2cn(-c3ccccc3)c(=O)c(C(=O)N3CCN(c4ccccn4)CC3)c2C1 |
| 738 s | O=C(NCCc1nc2cccnc2n1Cc1ccccc1)NCc1ccc(F)cc1 |
| 1020 s | COc1cccc(-c2nc(Cn3ccn4nc(-c5ccccc5)cc4c3=O)c(C)o2)c1OC |
| 800 s | CS(=O)(=O)N1CCCC(C(=O)Nc2nc(-c3nc4ccccc4s3)cs2)C1 (stereo not given) |
| 905 s | O=c1ccn(-c2cccc(F)c2)nc1-c1nc(-c2ccccc2Br)no1 |
| 917 s | Cc1nc(-c2noc(-c3ccccc3)n2)cn1CC(=O)Nc1ccc(F)c(Cl)c1 |
| 618 s | Cc1c(N2CCC(C(=O)N3CCN(c4ccccn4)CC3)CC2)c(=O)n(C)c(=O)n1-c1ccccc1 |
| 1040 s | Clc1ccc(OCc2nn3c(CSc4ccccc4)nnc3s2)cc1 |
| 783 s | CCOCCCNC(=O)C1CCN(S(C)(=O)=O)c2cc(Cl)ccc2O1 (stereo not given) |
| 1020 s | CCCn1cc(C(=O)NCCCOC)c(S(=O)(=O)N2CCN(c3ccccc3Cl)CC2)n1 |

| RP-LC retention time | SMILES |
| --- | --- |
| 639 s | Cn1c(=O)cc(SCC(=O)N2CCN(c3ccccn3)CC2)c2ccc(Cl)cc21 |
| 718 s | Cc1c(F)cccc1NC(=O)Nc1ccc2nnc(C)n2c1 |
| 1060 s | CC(C)Cc1cc(-c2nnc3sc(-c4ccc(N(C)C)cc4)nn23)n[nH]1 |
| 856 s | COCCN1C(=O)c2ccccc2C(C(=O)NCc2ccccc2)C12CCCCC2 (stereo not given) |
| 715 s | CCOc1cc(Cl)c(S(=O)(=O)NCc2ccccn2)cc1Cl |
| 802 s | Cc1[nH]c(C(=O)N2CCC(CC(=O)NCc3ccccc3)CC2)c(C)c1C(=O)OC(C)C |
| 897 s | O=C(Nc1c(-c2cccc(F)c2)nc2sc(N3CCCCC3)nn12)C1CC1 |
| 671 s | CC(C)NC(=O)N1CCOc2ccc(CCC(=O)O)cc2C1 |
| 894 s | COC(=O)C(Cc1ccccc1)NC(=O)C(NC(=O)OCc1ccccc1)C(C)C (stereo not given) |
| 709 s | O=C(Nc1ccc2c(c1)OCCO2)C1CCCN(c2nnc3c(Cl)cccn23)C1 (stereo not given) |
| 1010 s | O=S(=O)(Cc1ccccc1)N1CC(c2nc(Cc3ccccc3)no2)C1 |
| 895 s | CCN1C=C(C(=O)OCc2ccccc2F)C(C)=NS1(=O)=O |
| 1030 s | CCCc1sc(Nc2ccccc2OCC)nc1-c1ccc(Cl)c(Cl)c1 |
| 581 s | O=C(NCCN1CCOCC1)c1ccc(Nc2c(-c3ccccc3)nc3cnccn23)cc1 |
| 669 s | COc1ccc(CCC(=O)NCCc2cn(C)c3ncccc23)cc1 |
| 604 s | CCN1CCCC1CNS(=O)(=O)c1cc(-c2nc(C)c(C(=O)N3CCCC3)s2)cs1 (stereo not given) |
| 835 s | COc1ccc(C2C(C(=O)Nc3ccc4c(c3)OCO4)c3ccccc3C(=O)N2C)cc1 (stereo not given) |
| 989 s | C=CCn1c(C)c(CC(=O)Nc2cccc(C)c2)c(=O)n2nc(-c3ccc(C)cc3)nc12 |
| 614 s | CC(C)n1cnnc1CC1CCN(C(=O)C2CCN(S(=O)(=O)N3CCOCC3)CC2)CC1 |
| 724 s | CCOCCCNC(=O)c1cc2n(n1)CCCN(Cc1ccccc1)C2=O |
| 627 s | Cc1nc(CCNC(=O)[C@H]2CCCN2C(=O)c2ccc(F)cc2)cs1 |
| 1060 s | COc1ccc(C2(C(=O)N3CCC(c4nc(CCOCC5CCCC5)no4)C3)CC2)cc1 (stereo not given) |

| RP-LC retention time | SMILES |
| --- | --- |
| 946 s | Cc1nc(-c2ccc(Cl)cc2)sc1CCNC(=O)c1ccco1 |
| 765 s | Cc1ccc(NS(=O)(=O)c2cc3n(c2)CCN(C(C)C)C3=O)c(F)c1 |
| 953 s | CCn1c(=O)sc2cc(S(=O)(=O)N3CCC(C(=O)N(C)c4ccc(C)cc4)CC3)ccc21 |
| 826 s | CC1CN(C(=O)Cn2cc(SCC(=O)NC3CCCC3)c3ccccc32)CC(C)O1 (stereo not given) |
| 707 s | O=C(NCC(F)(F)F)C1CCN(C(=O)Cc2ccc(Cl)cc2)CC1 |
| 913 s | O=C(NCc1ccccc1Cl)C1=C2CCCN2c2ccc(F)cc2S1(=O)=O |
| 1180 s | Cc1sc(NC(=O)c2ccc(COc3ccc(F)cc3)o2)nc1-c1ccccc1 |
| 893 s | COc1ccc(-c2noc(-c3nc(-c4cccnc4)no3)n2)cc1OC |
| 632 s | O=C(Nc1ccc(Br)cc1F)C1CCN(C(=O)c2cc(-c3ccncc3)n[nH]2)CC1 |
| 722 s | Cc1ccc(C)c(CNC(=O)C2CCN(c3cnc4nccnc4c3)CC2)c1 |
| 1120 s | CC1CCN(S(=O)(=O)c2ccc(-c3nnc(C(=O)NCc4ccc(Cl)cc4)o3)cc2)CC1 |
| 828 s | CCOC(=O)c1ccc2nc(NC(=O)c3ccn(C)n3)sc2c1 |
| 968 s | CN1C(=O)c2cc(S(=O)(=O)NCc3ccc(Cl)cc3)ccc2Oc2cccnc21 |
| 831 s | O=S(=O)(c1ccc(C(F)(F)F)cc1)N1CCCC(Cn2cnc3cccnc32)C1 (stereo not given) |
| 702 s | O=C(CN1CCC(c2nc(-c3cccs3)no2)CC1)N1CCN(c2ccccc2)CC1 |
| 718 s | Cc1ccc(C(O)CN2CCN(c3ccccc3C)CC2)cc1 (stereo not given) |
| 786 s | Cc1ccc(NC(=O)NCCn2c(C(F)(F)F)nc3cccnc32)cc1F |
| 860 s | COc1ccc(-c2nsc(SCC(=O)Nc3cc(C)on3)n2)cc1 |
| 864 s | CCc1noc(NC(C)=O)c1-c1ccc(OC)c(S(=O)(=O)N2CCC(C)CC2)c1 |
| 653 s | O=C(c1ccco1)N1CCC(F)(C(=O)N2CCCC2)CC1 |
| 750 s | CCC(=O)N1CCc2cc(N3CC(C(=O)Nc4ccccc4CC)CC3=O)ccc21 (stereo not given) |
| 782 s | CCCn1c(-c2cccc(C(=O)NCc3cccs3)c2)nc2cccnc21 |

| RP-LC retention time | SMILES |
| --- | --- |
| 903 s | O=C(O)c1cc2cc(OCc3ccccc3)ccc2[nH]1 |
| 867 s | CCN1C(=O)C2(CCN(C(=O)NC3CCCCC3)CC2)c2ccccc21 |
| 731 s | COC(=O)c1ccc(C(=O)NCCCC(=O)Nc2cccc3cccnc23)cc1 |
| 663 s | Cc1ccn2cc(-c3ccc(NC(=O)COc4ccccc4)cc3)nc2n1 |
| 774 s | COCCNC(=O)C1COc2ccc(NC(=O)c3ccc(Br)cc3)cc2C1 (stereo not given) |
| 769 s | CC(C)N1CCn2cc(S(=O)(=O)NCc3ccccc3Cl)cc2C1=O |
| 1040 s | COc1ccc(S(=O)(=O)N2CCCC(C(=O)Nc3cccc(F)c3)C2)cc1C (stereo not given) |
| 614 s | CCNc1nc(N2CCN(C3CCCCC3)CC2)nc2c1cnn2C |
| 560 s | COC(=O)c1ccc(C(=O)NCC(c2ccccc2Cl)N(C)C)cc1 (stereo not given) |
| 985 s | Cc1ccc(NC(=O)Cn2cccc2-c2nnc(C3CCC3)o2)cc1C |
| 685 s | O=C(Cc1nnc2c(-c3nc(C4CC4)no3)cccn12)NC1CCCCC1 |
| 711 s | CCc1cc(=O)n(CC(=O)Nc2ccccc2F)c(N2CCOCC2)n1 |
| 1150 s | Brc1ccc(Nc2nc(-c3ccc4c(c3)OCO4)cs2)nc1 |
| 954 s | CCC(C)NC(=O)N1CCC2(CC1)Nc1cc(F)ccc1-n1cccc12 (stereo not given) |
| 816 s | O=C(c1cccc(Cl)c1)N1CCN(c2cc(-c3cccs3)[nH]n2)CC1 |
| 1090 s | Clc1ccc(-c2nc(-c3cccc(-c4ccn[nH]4)c3)no2)cc1 |
| 631 s | Cc1noc([C@@H]2CN(C(=O)c3ccc(Cc4c(C)noc4C)o3)C[C@H]2C(N)=O)n1 |
| 606 s | CN(C)CCNC(=O)C1CCN(S(=O)(=O)c2ccc3c(c2)sc(=O)n3C)CC1 |
| 948 s | Cc1cccc(C(=O)N2CCCC2c2cc(C(C)C)on2)c1 (stereo not given) |
| 916 s | CCCCOc1c(C(=O)c2c(F)cc(C)cc2F)cnc2[nH]ncc12 |
| 600 s | Cc1nnc2c(NC(=O)c3cnccn3)cccn12 |

| SMILES | RP-LC retention time |
| --- | --- |
| COc1ccc(-c2cn3c(CC(=O)N4CCN(Cc5ccccc5)CC4)csc3n2)cc1OC | 596 s |
| COc1ccc2c(c1)C1(CCN(C(=O)Cc3cccc(F)c3)C1)C(=O)N2 (stereo not given) | 740 s |
| Cn1cc(C(=O)Nc2ccc(C(F)(F)F)cc2)c2cccnc21 | 909 s |
